Laboratory results published in patent publication US5302621A, “Azasteroid compounds for the treatment of prostatic hypertrophy, their preparation and use” (Sankyo Company, Limited, priority 1990, dated 1994).

Test system: rat 5α-reductase
Assay: Assay of Rat 5α-reductase Inhibition
Assay type: biochemical, rat (Sprague-Dawley)
Details: 10^-8 M test compound; rat prostate 5α-reductase, 1 μM [14C] testosterone, pH 6.5, 37° C., 15 to 30 minutes
Method: The prostatic lobes of a mature male rat (body weight 350-450 g, Sprague-Dawley strain) were cut into small pieces with scissors. About three parts by weight of a buffer solution [20 mM potassium phosphate buffer solution (ph 7.4) containing 0.33M sucrose, 1 mM dithiothreitol, 50 μM nicotinamide adenine dinucleotide phosphate-reduced form (NADPH) and 0.001% PMSF (phenylmethyl sulfonyl fluoride)] were added to one part by weight of the tissue pieces, and the mixture was homogenized first by means of a Polytron (trade mark, KINEMATICA GmbH) homogenizer, and then by means of a Teflon (trade mark) glass homogenizer. The prostatic tissue suspension thus homogenized was then centrifuged (140000×g, 60 minutes) to separate the precipitate.
About three parts by weight of the buffer solution described above were added to one part of the precipitate to suspend it, and the suspension was centrifuged again (140000×g, 60 minutes) to wash it and separate a precipitate, which was regarded as a rat 5α-reductase preparation. Sufficient of the buffer solution described above was added to this precipitate for the protein content of the solution to become between 20 and 40 mg/ml. The solution was frozen and stored at -80° C. The protein content was determined by a Bio-Rad protein assay in which bovine γ-globulin (Cohn Fraction II, Sigma) was used as the protein standard.
5 μl of a dimethyl sulfoxide or ethanol solution in which a test compound to be tested was dissolved were added to 0.5 ml of a 40 mM potassium phosphate buffer solution (pH 6.5) containing rat 5α-reductase (protein content, 1 mg), 1 μM [^14 C] testosterone, 1 mM dithiothreitol and 500 μM NADPH (final concentration 10^-8 M of the test compound), and incubated for 15 to 30 minutes at 37° C. As a control, only the solvent was added to one sample. 2 ml of ethyl acetate containing 10 μg each of testosterone, 5α-dihydrotestosterone and androstenedione were then added to stop the reaction. The mixture was centrifuged (1400×g, 5 minutes). The ethyl acetate layer was separated and transferred to another test tube, where it was evaporated to dryness whilst spraying it with nitrogen gas. The steroids were dissolved in 40 μl of ethyl acetate. The solution was spotted on a thin layer chromatographic plate (LK5DF silica plate, Whatman), and developed with a mixture of ethyl acetate with cyclohexane (1:1 by volume) twice at room temperature. The steroid fraction was identified by color development by ultraviolet radiation or by heating with a […]/10% sulfuric acid solution. The radioactivity on the thin layer chromatographic plate was measured by means of a bio-image analyzer (Fuji Film Co. Ltd.). The enzyme activity was given by the amount [conversion rate (%)] of [^14 C] 5α-dihydro-testosterone which was converted from the [^14 C] testosterone initially added. The rat 5α-reductase inhibiting activity of a test sample was calculated from the following equation: [formula]

SMILES | Rat 5α-reductase inhibiting activity: Inhibiting activity (%)
CN1C(=O)CC[C@@]2(C)C1=CC[C@H]1[C@@H]3CC[C@H](C(=O)NC(C)(C)c4ccccc4)[C@@]3(C)CC[C@@H]12 [Example No. 42, N-(1-Methyl-1-phenylethyl)-4-methyl-3-oxo-4-aza-androst-5-ene-17β-carboxamide] | 72.3
CN1C(=O)CC[C@]2(C)[C@H]3CC[C@]4(C)[C@@H](C(=O)NC(C)(C)c5ccccc5)CC[C@H]4[C@@H]3CC[C@@H]12 [Example No. 40, N-(1-Methyl-1-phenylethyl)-4-methyl-3-oxo-4-aza-5α-androstane-17β-carboxamide] | 88.6
CN1C(=O)CC[C@]2(C)[C@H]3CC[C@]4(C)[C@@H](C(=O)NC(C)(c5ccccc5)c5ccccc5)CC[C@H]4[C@@H]3CC[C@@H]12 [Example No. 26, N-(1,1-Diphenylethyl)-4-methyl-3-oxo-4-aza-5α-androstane-17β-carboxamide] | 87.3
CC(C)(C)NC(=O)C1CCC2C3CCC4NC(=O)C=CC4(C)C3CCC12C (centres unmarked) [Compound A2, reference compound] | 30.0
C[C@]12CCC(=O)N[C@@H]1CC[C@@H]1[C@@H]2CC[C@]2(C)[C@@H](C(=O)N(Cc3ccccc3)Cc3ccccc3)CC[C@@H]12 [Example No. 4, N,N-Dibenzyl-3-oxo-4-aza-5α-androstane-17β-carboxamide] | 74.1
Cc1ccc(C[C@H](NC(=O)[C@H]2CC[C@H]3[C@@H]4CC[C@H]5NC(=O)CC[C@]5(C)[C@H]4CC[C@]23C)c2ccccc2)cc1 [Example No. 62, N-[(S)-2-(4-Methylphenyl)-1-phenylethyl]-3-oxo-4-aza-5α-androstane-17β-carboxamide] | 90.1
CC(C)(NC(=O)[C@H]1CC[C@H]2[C@@H]3CC[C@H]4NC(=O)CC[C@]4(C)[C@H]3CC[C@]12C)c1ccccc1 [Example No. 37, N-(1-Methyl-1-phenylethyl)-3-oxo-4-aza-5α-androstane-17β-carboxamide] | 82.2

Further lines, results first:

Rat 5α-reductase inhibiting activity: Inhibiting activity (%) | SMILES
89.2 | C[C@]12CCC(=O)N[C@@H]1CC[C@@H]1[C@@H]2CC[C@]2(C)[C@@H](C(=O)NC(c3ccccc3)c3ccccc3)CC[C@@H]12 [Example No. 1, N-(Diphenylmethyl)-3-oxo-4-aza-5α-androstane-17β-carboxamide]
80.5 | C[C@]12C=CC(=O)N[C@@H]1CC[C@@H]1[C@@H]2CC[C@]2(C)[C@@H](C(=O)N[C@H](c3ccccc3)[C@@H](O)c3ccccc3)CC[C@@H]12 [Example No. 73, N-[(1R,2S)-2-Hydroxy-1,2-diphenylethyl]-3-oxo-4-aza-5α-androst-1-ene-17β-carboxamide]
89.1 | C[C@]12CCC(=O)N[C@@H]1CC[C@@H]1[C@@H]2CC[C@]2(C)[C@@H](C(=O)NC(Cc3ccccc3)c3ccccc3)CC[C@@H]12 (stereo partly drawn) [Example No. 3, N-(1,2-Diphenylethyl)-3-oxo-4-aza-5α-androstane-17β-carboxamide]
73.2 | COc1ccc(C(C)(C)NC(=O)[C@H]2CC[C@H]3[C@@H]4CC[C@H]5NC(=O)C=C[C@]5(C)[C@H]4CC[C@]23C)cc1 [Example No. 44, N-[1-(4-Methoxyphenyl)-1-methylethyl]-3-oxo-4-aza-5α-androst-1-ene-17β-carboxamide]
74.6 | C[C@]12C=CC(=O)N[C@@H]1CC[C@@H]1[C@@H]2CC[C@]2(C)[C@@H](C(=O)NC(Cc3ccccc3)c3ccccc3)CC[C@@H]12 (stereo partly drawn) [Example No. 8, N-(1,2-Diphenylethyl)-3-oxo-4-aza-5α-androst-1-ene-17β-carboxamide]
78.4 | C[C@]12CC[C@H]3[C@@H](CC=C4NC(=O)CC[C@@]43C)[C@@H]1CC[C@@H]2C(=O)NC(Cc1ccccc1)c1ccccc1 (stereo partly drawn) [Example No. 12, N-(1,2-Diphenylethyl)-3-oxo-4-azaandrost-5-ene-17β-carboxamide]
80.0 | C[C@]12C=CC(=O)N[C@@H]1CC[C@@H]1[C@@H]2CC[C@]2(C)[C@@H](C(=O)NN(c3ccccc3)c3ccccc3)CC[C@@H]12 [Example No. 65, N,N-Diphenyl-3-oxo-4-aza-5α-androst-1-ene-17β-carbohydrazide]
86.7 | CN1C(=O)CC[C@]2(C)[C@H]3CC[C@]4(C)[C@@H](C(=O)NC(c5ccccc5)c5ccccc5)CC[C@H]4[C@@H]3CC[C@@H]12 [Example No. 20, N-(Diphenylmethyl)-4-methyl-3-oxo-4-aza-5α-androstane-17β-carboxamide]

Test system: testosterone 5α-reductase
Assay: not given
Details: background, U.S. Pat. No. 4,179,453 and 4,760,071; cited from earlier work

SMILES | 5α-reductase inhibitory activity of prior-art compounds, in words
CC(C)(C)NC(=O)C1CCC2C3CCC4NC(=O)C=CC4(C)C3CCC12C (centres unmarked) [Compound A2, reference compound] | quite a potent activity
CCN(CC)C(=O)C1CCC2C3CCC4NC(=O)C=CC4(C)C3CCC12C (centres unmarked) [Compound A1] | quite a potent activity
